Laboratory results reported in patent publication US20240116985A1, “STAPLED PEPTIDES AND METHODS THEREOF” (priority 2020, published 2024).

Each compound was assayed against T1, full-length beta-Catenin (Uniprot ID P35222) (Homo sapiens, UniProt P35222) (assay: Fluorescence polarization IC50 (beta-catenin / 5FAM-TCF4 10-53 competition)). Settings: fluorescence polarization; read-out: beta-Catenin FP IC50.
T1 construct: 10 nM full-length beta-Catenin (Uniprot ID P35222)
T1 sequence (P35222 1-781): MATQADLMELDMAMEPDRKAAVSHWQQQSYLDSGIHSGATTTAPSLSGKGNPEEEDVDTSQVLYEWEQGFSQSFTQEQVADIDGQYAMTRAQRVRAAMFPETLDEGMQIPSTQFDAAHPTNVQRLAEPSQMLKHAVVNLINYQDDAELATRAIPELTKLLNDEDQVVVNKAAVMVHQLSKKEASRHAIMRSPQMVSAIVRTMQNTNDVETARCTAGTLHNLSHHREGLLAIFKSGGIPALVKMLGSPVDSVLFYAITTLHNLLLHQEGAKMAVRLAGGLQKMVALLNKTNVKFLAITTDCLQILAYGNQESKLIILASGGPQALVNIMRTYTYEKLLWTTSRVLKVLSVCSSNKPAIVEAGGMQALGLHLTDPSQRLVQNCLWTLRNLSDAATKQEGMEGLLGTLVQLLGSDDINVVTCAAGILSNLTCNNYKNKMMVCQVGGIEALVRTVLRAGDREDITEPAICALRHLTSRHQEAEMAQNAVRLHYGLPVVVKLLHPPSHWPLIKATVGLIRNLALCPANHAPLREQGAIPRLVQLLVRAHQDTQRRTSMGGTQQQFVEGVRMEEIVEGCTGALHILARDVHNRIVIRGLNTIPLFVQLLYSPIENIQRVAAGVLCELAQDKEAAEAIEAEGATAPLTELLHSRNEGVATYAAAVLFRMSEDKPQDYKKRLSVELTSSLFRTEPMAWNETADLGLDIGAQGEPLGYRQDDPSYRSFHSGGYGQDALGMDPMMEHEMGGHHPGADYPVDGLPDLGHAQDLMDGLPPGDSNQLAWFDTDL
Type: binding
In the case of `CC(=O)N1CCC[C@]12CC=CCCCC1(CCCC=CCCCOC(=O)N3CC[C@@](C(=O)N[C@@H](Cc4ccsc4)C(=O)N[C@@H](Cc4csc5ccccc45)C(=O)N[C@@H](CCC(N)=O)C(N)=O)(C3)NC(=O)[C@H](CC(N)=O)NC(=O)[C@H](Cc3ccccc3)NC(=O)[C@H](C)NC(=O)[C@H](CCCCNC(C)C)NC(=O)[C@H]([C@@H](C)O)NC(=O)[C@H](CC(N)=O)NC1=O)NC(=O)[C@H](CC(C)(C)C)NC(=O)[C@H](CC(=O)O)NC2=O` (stereo partly drawn) [I-2004, Ac-PL3-Asp-Npg-B5-Asn-Thr-iPrLys-Ala-Phe-Asn-PyrS2-3Thi-BztA-Gln-NH2], the IC50 is reported as 227 nM. In the case of `CC(=O)N1CCC[C@]12CC=CCCCC1(CCCC=CCCCOC(=O)N3CC[C@@](C(=O)N[C@@H](Cc4ccsc4)C(=O)N[C@@H](Cc4csc5ccccc45)C(=O)N[C@@H](CCC(N)=O)C(N)=O)(C3)NC(=O)[C@H](CC(N)=O)NC(=O)[C@H](Cc3cccc(Cl)c3)NC(=O)[C@H](C)NC(=O)[C@H](C)NC(=O)[C@H]([C@@H](C)O)NC(=O)[C@H](CC(N)=O)NC1=O)NC(=O)[C@H](CC(C)(C)C)NC(=O)[C@H](CC(=O)O)NC2=O` (stereo partly drawn) [I-2013, Ac-PL3-Asp-Npg-B5-Asn-Thr-Ala-Ala-3C1F-Asn-PyrS2-3Thi-BztA-Gln-NH2], the IC50 is reported as 661 nM. In the case of `CC(C)C[C@@H]1NC(=O)[C@H](Cc2ccccc2)NC(=O)[C@H](C)NC(=O)[C@H](C)NC(=O)[C@H](CN(CC(=O)O)CC(F)(F)F)NC(=O)[C@H](CC(=O)O)NC(=O)C2(CCCCCCCCOC(=O)N3CC[C@@](C(=O)N[C@@H](Cc4ccsc4)C(=O)N[C@@H](Cc4csc5ccccc45)C(=O)N[C@@H](CCC(N)=O)C(N)=O)(C3)NC1=O)CCCCCCS(=O)(=O)N1CCC[C@@H]1C(=O)N[C@@H](CC(=O)O)C(=O)N[C@@H](CC(C)(C)C)C(=O)N2` (stereo partly drawn) [I-2267, ProSAm3-Asp-Npg-B5-Asp-TfeGA-Ala-Ala-Phe-Leu-PyrS2-3Thi-BztA-Gln-NH2], the IC50 is reported as 499 nM. With `CC(=O)N1CCC[C@]12CC=CCCCC1(CCCC=CCCCOC(=O)N3CC[C@@](C(=O)N[C@@H](Cc4ccsc4)C(=O)N[C@@H](Cc4c[nH]c5cccc(F)c45)C(=O)N[C@@H](CCC(N)=O)C(N)=O)(C3)NC(=O)[C@H](CC(N)=O)NC(=O)[C@H](Cc3ccccc3)NC(=O)[C@H](C)NC(=O)[C@H](C)NC(=O)[C@H](CC(=O)O)NC(=O)[C@H](CC(=O)O)NC1=O)NC(=O)[C@H](CC(C)(C)C)NC(=O)[C@H](CC(=O)O)NC2=O` (stereo partly drawn) [I-2178, Ac-PL3-Asp-Npg-B5-Asp-Asp-Ala-Ala-Phe-Asn-PyrS2-3Thi-4FW-Gln-NH2] the IC50 was 42 nM. `CC(=O)N[C@]1(C)CCCC=CCCCC2(CCCC=CCCCOC(=O)N3CC[C@@](C(=O)N[C@@H](Cc4ccccc4C(F)(F)F)C(=O)N[C@@H](Cc4csc5ccccc45)C(=O)N[C@@H](CCC(N)=O)C(N)=O)(C3)NC(=O)[C@H](CC(C)C)NC(=O)[C@H](Cc3ccccc3)NC(=O)[C@H](C)NC(=O)[C@H](C)NC(=O)[C@H](Cc3cccc(C(=O)O)c3)NC(=O)[C@H](CC(=O)O)NC2=O)NC(=O)[C@H](CC(C)(C)C)NC(=O)[C@H](CC(=O)O)NC1=O` (stereo partly drawn) [I-2564, Ac-R5-Asp-Npg-B5-Asp-3COOHF-Ala-Ala-Phe-Leu-PyrS2-2F3MeF-BztA-Gln-NH2] showed an IC50 of 259 nM. `CC(=O)N1CCC[C@]12CC=CCCCC1(CCCC=CCCCOC(=O)N3CC[C@@](C(=O)N[C@@H](Cc4cccc(C(F)(F)F)c4)C(=O)N[C@@H](Cc4csc5ccccc45)C(=O)N[C@@H](CCC(N)=O)C(N)=O)(C3)NC(=O)[C@H](CC(N)=O)NC(=O)[C@H](Cc3ccccc3)NC(=O)[C@H](C)NC(=O)[C@H](C)NC(=O)[C@H]([C@@H](C)O)NC(=O)[C@H](CC(N)=O)NC1=O)NC(=O)[C@H](CC(C)(C)C)NC(=O)[C@H](CC(=O)O)NC2=O` (stereo partly drawn) [I-1997, Ac-PL3-Asp-Npg-B5-Asn-Thr-Ala-Ala-Phe-Asn-PyrS2-3F3MeF-BztA-Gln-NH2] showed an IC50 of 3390 nM. Compound `CC(=O)N1CCC[C@]12CC=CCCCC1(CCCC=CCCCOC(=O)N3CC[C@@](C(=O)N[C@@H](Cc4ccsc4)C(=O)N[C@@H](Cc4csc5ccccc45)C(=O)N[C@@H](CCC(N)=O)C(N)=O)(C3)NC(=O)[C@H](CC(N)=O)NC(=O)[C@H](Cc3ccccc3)NC(=O)[C@H](C)NC(=O)[C@H](C)NC(=O)[C@H]([C@@H](C)O)NC(=O)[C@H](CC(N)=O)NC1=O)NC(=O)[C@H](CC(C)(C)C)NC(=O)[C@H](Cc1ccccc1C(=O)O)NC2=O` (single isomer, unassigned) [I-2137, Ac-PL3-2COOHF-Npg-B5-Asn-Thr-Ala-Ala-Phe-Asn-PyrS2-3Thi-BztA-Gln-NH2] has an IC50 of 1900 nM. `CC(=O)N1CCC[C@]12CC=CCCCC1(CCCC=CCCCOC(=O)N3CC[C@@](C(=O)N[C@@H](Cc4ccsc4)C(=O)N[C@@H](Cc4csc5ccccc45)C(=O)N[C@@H](CCC(N)=O)C(N)=O)(C3)NC(=O)[C@H](CC(C)C)NC(=O)[C@H](Cc3ccccc3)NC(=O)[C@H](C)NC(=O)[C@H](CCCN3CCOCC3)NC(=O)[C@H](CC(=O)O)NC(=O)[C@H](CC(=O)O)NC1=O)NC(=O)[C@H](CC(C)(C)C)NC(=O)[C@H](CC(=O)O)NC2=O` (stereo partly drawn) [I-1481, Ac-PL3-Asp-Npg-B5-Asp-Asp-MorphNva-Ala-Phe-Leu-PyrS2-3Thi-BztA-Gln-NH2] was tested, and the IC50 was 7 nM. `CC(=O)N[C@]12CCN(C1)C(=O)OCC=CCCCC1(CCCC=CCCCOC(=O)N3CC[C@@](C(=O)N[C@@H](Cc4ccccc4C(F)(F)F)C(=O)N[C@@H](Cc4csc5ccccc45)C(=O)N[C@@H](CCC(N)=O)C(N)=O)(C3)NC(=O)[C@H](CC(C)C)NC(=O)[C@H](Cc3ccccc3)NC(=O)[C@H](C)NC(=O)[C@H](C)NC(=O)[C@H](Cc3cccc(C(=O)O)c3)NC(=O)[C@H](CC(=O)O)NC1=O)NC(=O)[C@H](CC(C)(C)C)NC(=O)[C@H](CC(=O)O)NC(=O)[C@H](CCC(=O)O)NC2=O` (stereo partly drawn) [I-2569, Ac-PyrR-Glu-Asp-Npg-B5-Asp-3COOHF-Ala-Ala-Phe-Leu-PyrS2-2F3MeF-BztA-Gln-NH2] was tested, and the IC50 was 1950 nM. `CC(=O)N1CCC[C@]12CC=CCCCC1(CCCC=CCCCOC(=O)N3CC[C@](C(=O)N[C@@H](Cc4ccsc4)C(=O)N[C@@H](Cc4csc5ccccc45)C(=O)N[C@@H](CCC(N)=O)C(N)=O)(C3)NC(=O)[C@H](CC(C)C)NC(=O)[C@H](Cc3ccccc3)NC(=O)[C@H](C)NC(=O)[C@H](C)NC(=O)[C@H](CC(=O)O)NC(=O)[C@H](CC(=O)O)NC1=O)NC(=O)[C@H](CC(C)(C)C)NC(=O)[C@H](CC(=O)O)NC2=O` (stereo partly drawn) [I-2020, Ac-PL3-Asp-Npg-B5-Asp-Asp-Ala-Ala-Phe-Leu-PyrR2-3Thi-BztA-Gln-NH2] showed an IC50 of 1200 nM. Work on `CC(=O)N1CCC[C@]12CC=CCCCC1(CCCC=CCCCOC(=O)N3CC[C@@](C(=O)N[C@@H](Cc4ccsc4)C(=O)N[C@@H](Cc4csc5ccccc45)C(=O)N[C@@H](CCC(N)=O)C(N)=O)(C3)NC(=O)[C@H](CC(C)C)NC(=O)[C@H](Cc3ccccc3)NC(=O)[C@H](C)NC(=O)[C@H](C)NC(=O)[C@H](Cn3cc(CC4(C(=O)O)CCCCC4)nn3)NC(=O)[C@H](CC(=O)O)NC1=O)NC(=O)[C@H](CC(C)(C)C)NC(=O)[C@H](CC(=O)O)NC2=O` (stereo partly drawn) [I-2483, Ac-PL3-Asp-Npg-B5-Asp-[CH2CChCO2H]TriAzDap-Ala-Ala-Phe-Leu-PyrS2-3Thi-BztA-Gln-NH2] yielded an IC50 of 5 nM. Compound `CC(=O)N1CCC[C@]12CC=CCCCC1(CCCC=CCCCOC(=O)N3CC(C(=O)N[C@@H](Cc4ccccc4C(F)(F)F)C(=O)N[C@@H](Cc4csc5ccccc45)C(=O)N[C@@H](CCC(N)=O)C(N)=O)(C3)NC(=O)[C@H](CC(C)C)NC(=O)[C@H](Cc3ccccc3)NC(=O)[C@H](C)NC(=O)[C@H](C)NC(=O)[C@H](Cc3cccc(C(=O)O)c3)NC(=O)[C@H](CC(=O)O)NC1=O)NC(=O)[C@H](CC(C)(C)C)NC(=O)[C@H](CC(=O)O)NC2=O` (stereo partly drawn) [I-2610, Ac-PL3-Asp-Npg-B5-Asp-3COOHF-Ala-Ala-Phe-Leu-Az2-2F3MeF-BztA-Gln-NH2] has an IC50 of 215 nM. Work on `CC(=O)N1CCC[C@]12CC=CCCCC1(CCCC=CCCCOC(=O)N3CC[C@@](C(=O)N[C@@H](Cc4ccccc4)C(=O)N[C@@H](Cc4csc5ccccc45)C(=O)N[C@@H](CCC(N)=O)C(N)=O)(C3)NC(=O)[C@H](CC(C)C)NC(=O)[C@H](Cc3ccccc3)NC(=O)[C@H](C)NC(=O)[C@H](C)NC(=O)[C@H](Cc3c[nH]cn3)NC(=O)[C@H](CC(=O)O)NC1=O)NC(=O)[C@H](CC(C)(C)C)NC(=O)[C@H](CC(N)=O)NC2=O` (stereo partly drawn) [I-2442, Ac-PL3-Asn-Npg-B5-Asp-His-Ala-Ala-Phe-Leu-PyrS2-Phe-BztA-Gln-NH2] yielded an IC50 of 282 nM. `CC(=O)N1CCC[C@]12CCCCCCC1(CCCCCCCCCC[C@@](C)(C(=O)N[C@@H](Cc3ccsc3)C(=O)N[C@@H](Cc3csc4ccccc34)C(=O)N[C@@H](CCC(N)=O)C(N)=O)NC(=O)[C@H](CC(N)=O)NC(=O)[C@H](Cc3ccccc3)NC(=O)[C@H](C)NC(=O)[C@H](C)NC(=O)[C@H](CC(=O)O)NC(=O)[C@H](CC(=O)O)NC1=O)NC(=O)[C@H](CC(C)(C)C)NC(=O)[C@H](CC(=O)O)NC2=O` (stereo partly drawn) [I-1825, Ac-PL3-Asp-Npg-B5-Asp-Asp-Ala-Ala-Phe-Asn-S7-3Thi-BztA-Gln-NH2] gave an IC50 of 366 nM.
